The test system of one assay is AM-ST7. The assay is described as follows: Kirby-Bauer disk diffusion antibiotic susceptibility testing of AM-ST7. The assay is classed as cell-based, Akkermansia muciniphila. The note with it: AM-ST7 susceptible. The procedure: Antibiotic susceptibility was then determined by standard Kirby-Bauer disk diffusion testing. AM-ST7 was susceptible to the following antibiotics (cm=zone of inhibition): azithromycin (2.5 cm), amoxicillin/clavulanic acid (4 cm), vancomycin (1.5 cm), tetracycline (3 cm), bacitracin (2 cm), and levofloxacin (1.2 cm).
In general terms: In agar diffusion tests the substance spreads into inoculated agar from a disc or well.

For another assay, the system named is L. crispatus ST100. The assay is described as follows: Antibiotic resistance by broth solution method (MIC), L. crispatus ST100. It counts as cell-based, Lactobacillus crispatus. The procedure:
(§1) Antibiotic resistance in this example was determined using the broth solution method.
(§2) Antibiotic resistance in this example was determined using the broth solution method. This procedure involved preparing two-fold dilutions of antibiotics (e.g., 1, 2, 4, 8, and 16 μg/mL) in a liquid growth medium dispensed in test tubes. The antibiotic-containing tubes were inoculated with a standardized bacterial suspension of about 1-5×10^5 CFU/mL. Following overnight incubation at 37° C., the tubes were examined for visible bacterial growth as evidenced by turbidity. The lowest concentration of antibiotic that prevented growth represented the minimal inhibitory concentration (MIC).

The next assay concerns LC-ST100. The assay is described as follows: Kirby-Bauer disk diffusion antibiotic susceptibility testing of LC-ST100. It counts as cell-based, Lactobacillus crispatus. The note with it: LC-ST100 susceptible. The procedure:
Antibiotic susceptibility was determined by standard Kirby-Bauer disk diffusion testing. LC-ST100 is susceptible to the following antibiotics (cm=zone of inhibition): azithromycin (3.5 cm), amoxicillin/clavulanic acid (5 cm), clindamycin (4 cm), vancomycin (3.8 cm), ceftriaxone (3.5 cm), tetracycline (4.2 cm), ampicillin (4 cm), bacitracin (2.5 cm).

Another assay deals with F. prausnitzii ST38. The assay is described as follows: Antibiotic resistance by broth solution method (MIC), F. prausnitzii ST38. It counts as cell-based, Faecalibacterium prausnitzii. The procedure:
as §1, §2

The next assay concerns FP-ST38. The assay is described as follows: Kirby-Bauer disk diffusion antibiotic susceptibility testing of FP-ST38. The assay is classed as cell-based, Faecalibacterium prausnitzii. Conditions: FP-ST38 susceptible. The procedure: Antibiotic susceptibility was determined by standard Kirby-Bauer disk diffusion testing. FP-ST38 is susceptible to the following antibiotics (cm=zone of inhibition): amoxicillin/clavulanic acid (2.5 cm), ceftriaxone (2 cm), tetracycline (5 cm), amikacin (2 cm), and bacitracin (3.4 cm).

The subject of a further assay is Ca. glabrata DSM 11226. The assay is described as follows: Disk diffusion test for antimicrobial activity (DIN 58940-3) against Ca. glabrata. The assay is classed as cell-based. The note with it: test strain 2 (Ca. glabrata DSM 11226); positive control 2 μg Cycloheximide/disc; 24 h at 25° C.; disk diameter = 6 mm. The procedure:
(§3) Generally, all samples were provided in lyophilized from. Subsets of each sample were suspended in solvent for analysis by LC/MS and GC/MS. Following these analyses, further subsets of each sample were extracted and fractionated (to enrich the medium polar range). Fractions were analyzed by LC/MS. Cell extracts were analyzed in a bioassay against Candida sp. and Rhodotorula sp. in a disk diffusion assay at 3 concentrations.
(§4) Preparative Cell Extraction. Lyophilized cells were extracted prior to fractionation/bio assay to remove cell wall debris. The cells were adjusted to a final concentration of 50 mg/mL (Table 9) and sonicated for 15 min followed by vortexing for 2 min and a second sonication step of 15 min. Afterwards, 10 mL of the suspension were transferred to another vial an centrifuged at 10,000 RCF for 5 min. The supernatant was transferred to a new vial.
(§5) Disk diffusion test. Disk diffusion tests for antimicrobial activity were prepared according to DIN 58940-3 (DIN-Taschenbuch 222, 5. Edition) using the strains 00549fBCD000864 (Rho. glutinis, test strain #1) DSM 70821 and 00539fDSM011226 (Ca. glabrata, test strain #2) DSM 11226. […]
(§6) The test strains were diluted to 1.000.000 cfu/mL using saline solution. […] After 24 h the zone of inhibition was measured and recorded in Table 10 below.

The test system of a further assay is Rho. glutinis DSM 70821. The assay is described as follows: Disk diffusion test for antimicrobial activity (DIN 58940-3) against Rho. glutinis. It counts as cell-based. The note with it: test strain 1 (Rho. glutinis DSM 70821); positive control 2 μg Cycloheximide/disc; 24 h at 25° C.; disk diameter = 6 mm. The procedure: as §3, §4, §5, §6
Another assay relates to A. muciniphila ST7. The assay is described as follows: Antibiotic resistance by broth solution method (MIC), A. muciniphila ST7. It counts as cell-based, Akkermansia muciniphila. The procedure: as §1, §2

Values joined by “and” are separate entries in the source; they are usually repeats but may differ in a detail not shown here. Identical values can stand only once. Positions of bridges follow the written chain, without caps; N, C: chain ends. Non-standard residues stand in square brackets, D forms with d. Residues, ends and D or L forms follow the SMILES beside them. *: point of attachment. Ileψ(thiazoline)Cys = CC[C@H](C)[C@H](N)C1=N[C@H](C(=O)*)CS1; dOrn = NCCC[C@@H](N)C(=O)O

As for `CN[C@H](CC(C)C)C(=O)N[C@H]1C(=O)N[C@@H](CC(N)=O)C(=O)N[C@H]2C(=O)N[C@H]3C(=O)N[C@H](C(=O)N[C@H](C(=O)O)c4cc(O)cc(O)c4-c4cc3ccc4O)[C@H](O)c3ccc(c(Cl)c3)Oc3cc2cc(c3O[C@@H]2O[C@H](CO)[C@@H](O)[C@H](O)[C@H]2O[C@H]2C[C@](C)(N)[C@H](O)[C@H](C)O2)Oc2ccc(cc2Cl)[C@H]1O` [vancomycin], the zone of inhibition with AM-ST7 is reported as 1.5 cm; in the assay on LC-ST100, 3.8 cm. In addition, the antibiotic susceptibility entry in the assay on L. crispatus ST100 and with F. prausnitzii ST38 was “susceptible” in each case.
For `CN(C)[C@@H]1C(O)=C(C(N)=O)C(=O)[C@@]2(O)C(O)=C3C(=O)c4c(O)cccc4[C@@](C)(O)[C@H]3C[C@@H]12` [tetracycline], the zone of inhibition with FP-ST38 is on record as 5 cm; in the assay on AM-ST7 it was 3 cm; in the assay on LC-ST100, 4.2 cm.
Take `CCC[C@@H]1C[C@@H](C(=O)N[C@@H]([C@H]2O[C@H](SC)[C@H](O)[C@@H](O)[C@H]2O)[C@H](C)Cl)N(C)C1` [clindamycin]: in the assay on LC-ST100, the zone of inhibition was 4 cm.
Consider `CO/N=C(\C(=O)N[C@@H]1C(=O)N2C(C(=O)O)=C(CSc3nc(=O)c(=O)[nH]n3C)CS[C@H]12)c1csc(N)n1` [ceftriaxone], for which the zone of inhibition was determined as 2 cm in the assay on FP-ST38 and 3.5 cm in the assay on LC-ST100.
Consider `C[C@@H]1C[C@@H]([C@H](O)CC2CC(=O)NC(=O)C2)C(=O)[C@@H](C)C1` [Cycloheximide], for which the “Diameter inhibition zone [mm] Pos. Control” value in the assay with Ca. glabrata DSM 11226 is 11 mm and 10 mm and 9 mm; with Rho. glutinis DSM 70821 it was 14 mm and 13 mm.
The molecule `NCC[C@H](O)C(=O)N[C@@H]1C[C@H](N)[C@@H](O[C@H]2O[C@H](CN)[C@@H](O)[C@H](O)[C@H]2O)[C@H](O)[C@H]1O[C@H]1O[C@H](CO)[C@@H](O)[C@H](N)[C@H]1O` [amikacin] had a zone of inhibition with FP-ST38 of 2 cm. Further, in the assay with F. prausnitzii ST38, the antibiotic susceptibility entry was “susceptible”.
Consider `C[C@H]1COc2c(N3CCN(C)CC3)c(F)cc3c(=O)c(C(=O)O)cn1c23` [levofloxacin], for which, in the assay on AM-ST7, the zone of inhibition is 1.2 cm.
As to amoxicillin/clavulanic acid, the zone of inhibition in the assay on FP-ST38 came out at 2.5 cm; in the assay with AM-ST7, 4 cm; with LC-ST100, 5 cm.
For the molecule `CC1(C)S[C@@H]2[C@H](NC(=O)[C@H](N)c3ccccc3)C(=O)N2[C@H]1C(=O)O` [ampicillin], in the assay on L. crispatus ST100, the antibiotic susceptibility result is “susceptible”. For the same molecule, the zone of inhibition in the assay with LC-ST100 is 4 cm.
As to `CC[C@H]1OC(=O)[C@H](C)[C@@H](O[C@H]2C[C@@](C)(OC)[C@@H](O)[C@H](C)O2)[C@H](C)[C@@H](O[C@@H]2O[C@H](C)C[C@H](N(C)C)[C@H]2O)[C@](C)(O)C[C@@H](C)CN(C)[C@H](C)[C@@H](O)[C@]1(C)O` [azithromycin], the zone of inhibition in the assay on AM-ST7 is recorded as 2.5 cm; with LC-ST100, 3.5 cm. For the same molecule, the antibiotic susceptibility entry in the assay with L. crispatus ST100, with A. muciniphila ST7 and in the assay on F. prausnitzii ST38 was “susceptible” each time.
Consider `CC[C@H](C)[C@H](N)C1=N[C@H](C(=O)N[C@@H](CC(C)C)C(=O)N[C@H](CCC(=O)O)C(=O)N[C@H](C(=O)N[C@H]2CCCCNC(=O)[C@H](CC(N)=O)NC(=O)[C@@H](CC(=O)O)NC(=O)[C@H](Cc3cnc[nH]3)NC(=O)[C@@H](Cc3ccccc3)NC(=O)[C@H]([C@@H](C)CC)NC(=O)[C@@H](CCCN)NC2=O)[C@@H](C)CC)CS1` [bacitracin] ({Ileψ(thiazoline)Cys}-L[dE]IK[dOrn]I[dF]H[dD]N; lactam 4-C), for which the values for the zone of inhibition in the assay on FP-ST38, with AM-ST7 and with LC-ST100 were 3.4 cm, 2 cm and 2.5 cm, respectively.

Source of the values: patent publication US11369644B2, “Microbial consortia” (priority 2018, dated 2022).
